Reference: US8030357B2, “Use of bupropion metabolites for the treatment of inflammatory disorders” (Biocopea Limited, priority 2006, dated 2011)
Entries after “also recorded” stand apart in the source; their conditions may differ.

Tests used:
TNFα = assay: LPS Mouse Assay, serum TNFα; type: in vivo, Balb C ByJ mice; conditions: mice, i.p. or oral dosing 30 minutes before 1 mg/kg LPS i.p.; serum 2 hours after LPS, ELISA
Description: (§1) 7 week old Balb C ByJ mice (24-28 g) were administered, either by i.p. (5 ml/kg) or oral (10 ml/kg) administration, with vehicle or test article. 30 minutes later these animals were challenged with an intraperitoneal injection of 1 mg/kg LPS. 2 hours after LPS challenge blood samples were collected under light isoflurane anaesthesia into normal tubes by retro-orbital puncture. Samples were allowed to clot at room temperature and then spun at 6000 g for 3 min at 4° C. Serum was stored at −20° C. until use. Serum TNFα and IL-10 levels were analysed in duplicate by ELISA technique.

[1] = system: dextran sulphate induced colonic inflammation; assay: DSS Induced Colitis; type: in vivo, BDF1 male mice; conditions: mice, 3% dextran sulphate
Description: 8-10 week old BDF1 male mice (˜30 g) were housed in normal conditions. At the start of the study normal water was exchanged for a 3% dextran sulphate solution to induce colonic inflammation. Concurrently actarit and the positive control budesonide were administered rectally twice a day for 7 days. On day 8 the animal were sacrificed and the large intestine was removed. The lower two thirds were assessed for histological severity (scoring system; 1 mild to 4 severe). Mice were assessed for cumulative rectal bleeding scores, diarrheal scores and cumulative hemoccult measurements.

adjuvant arthritis = assay: Rat Adjuvant Assay; type: in vivo, Male Wistar rats; conditions: rats, oral once a day from day 11; for paw oedema / paw inflammation: doses 3, 10 and 30 mg/kg
Description: Male Wistar rats (180 to 200 g) were inoculated by subplantar injection of Freund's adjuvant (suspension of Mycobacterium butyricum in mineral oil) into the right paw at day 0. Sham inoculations were injected in the same way with 0.9% saline in matched Male Wistar rats. On day 2, animals were weighed. On days 3, 4, 7, 9 and 11, animals were weighed and both their right and left hind paws were measured by plethsymometry by submerging the paw up to the tibiotarsal joint. On day 11, rats with left hind paw volumes increased by 20% were selected for continuance in the study. On the same day, continuance rats were administered test article orally (10 ml/kg in distilled water) and from then on once a day until the completion of the study. Left and right hind paw volumes were measured on days 11, 14, 15, 16, 18 and 21.

[2] = system: intraplantar carrageenan induced paw oedema; assay: Carrageenan Paw Assay; type: in vivo, male Wistar rats; conditions: rats, oral gavage half an hour before carrageenan; paw volume AUC 1-5 hours
Description: Fasted (18 hour) male Wistar rats (105-130 g) were weighed and a basal mercury plethysmometer reading was taken of the right hind paw by submerging the paw in the mercury up to the tibiotarsal joint. Subsequently, vehicles, reference items and test articles were administered by oral gavage (10 ml/kg). Half an hour after treatment, 0.1 ml of 2% carrageenan in 0.9% saline was injected into the subplanatar area of the right hind paw. The right paw was measured again with the plethysmometer at 1, 2, 3, 4 and 5 hours after carrageenan administration. Paw volume effects was expressed as the area under the curve for paw volume over time. Activity (inhibition of paw volume) was expressed as the % antiinflammatory activity versus the vehicle control.

[3] = system: LPS-induced model of cytokine release; assay: LPS Mouse Assay, overall cytokine modulation; type: in vivo, Balb C ByJ mice; conditions: LPS-challenged mice, serum TNFα and IL-10
Description: as §1

IL-10 = assay: LPS Mouse Assay, serum IL-10; type: in vivo, Balb C ByJ mice; conditions: mice, i.p. or oral dosing 30 minutes before 1 mg/kg LPS i.p.; serum 2 hours after LPS, ELISA
Description: as §1

SJL mouse EAE model = assay: Experimental Autoimmune Encephalitis; type: in vivo; conditions: SJL mice, orally 10 mg/kg once a day from the first day
Description: Experimental Autoimmune Encephalitis
Acclimatised SJL mice were sensitised by a subcutaneous injection proteolipid protein (PLP) in Freund's complete adjuvant (CFA) acting as an encephalitogenic inoculum. Innoculum was administered subcutaneously at a concentration of 125 μg PLP/300 μg CFA in a volume of 200 μl. 48 hours later, an intraperitoneal injection of pertussis toxin (PTX) was administered at a dose of 20 μg/kg, to increase blood-brain barrier permeability.
Compound (6) was administered from the first day of the experiment and once a day until the end, orally at a dose of 10 mg/kg. Copaxone was administered intraperitoneally at a dose of 25 mg/kg. Throughout the experiment, careful clinical examinations and body weights were taken to observe the well being of the animal.

Compound	effect on TNF alpha secretion induced by LPS (TNFα)	effect on histological scores induced by oral dextran sulphate ([1]; top dose)	protective effects against adjuvant arthritis (adjuvant arthritis)	paw oedema / paw inflammation (adjuvant arthritis)	anti-inflammatory effect against carrageenan induced paw oedema [2]	cytokine modulatory activity [3]	effect on IL-10 secretion (IL-10)	comparative effectiveness of (6) against (5) in DSS colitis [1]	effect on histological scores induced by oral dextran sulphate ([1]; lower dose)	effect on second relapse of EAE (SJL mouse EAE model)
C[C@@H](NC(C)(C)C)[C@H](O)c1cccc(Cl)c1 (racemic) [Compound 7, (+/−)-(threo)-2-tert-Butylamino-1-(3-chlorophenyl)propan-1-ol]	inhibiting TNF alpha at all doses administrated; also recorded: small inhibitory effect on TNF alpha at the highest dose									
(−)-(erythro)-2-tert-Butylamino-1-(3-chlorophenyl)propan-1-ol [Compound 5]	inhibited TNFα production	marked effect	protective effects	reduced paw oedema at the top two doses	dose-dependant anti-inflammatory effect	good cytokine modulatory profiles	no effect on IL-10 levels			
CC(NC(C)(C)C)C(=O)c1cccc(Cl)c1 (stereo not shown) [Compound 3, 2-tert-Butylamino-1-(3-chlorophenyl)propan-1-one, reference compound]	small effect					very weak cytokine modulatory activity	not present			
(+)-(erythro)-2-tert-Butylamino-1-(3-chlorophenyl)propan-1-ol [Compound 6]	inhibited	marked effect	protective effects	inhibited paw inflammation at all doses	dose-dependant anti-inflammatory effect	good cytokine modulatory profiles	potentiated II-10 secretion	marginally more effective	large ameliorating effect	completely ameliorated the second relapse
(+/−)-(erythro)-2-tert-Butylamino-1-(3-chlorophenyl)propan-1-ol [Compound 8]						cytokine modulatory effects				
